Measurements reported in patent publication US5863901A, “Use of bradykinin antagonists for the production of pharmaceuticals for the treatment of chronic fibrogenetic liver disorders and acute liver disorders” (Hoechst Aktiengesellschaft, priority 1996, dated 1999).

System: rats with carbon tetrachloride-induced hepatic fibrosis
Assay: Saluresis and diuresis test: urine and electrolyte excretion in rats with carbon tetrachloride-induced hepatic fibrosis
Format: in vivo, Wistar rats
Settings: for Chloride excretion / Potassium excretion / Sodium excretion / Urine volume: 0.3 mg/kg s.c. at 0 and 6 h, mean value, n = 10, CCl4 fibrosis rats
Procedure: Wistar rats were used (breeder Hoechst AG, Kastengrund) with an initial body weight of 120-150 g.
Hepatic fibrosis was induced as described by Bickel et al., J. Hepatol., 13 (Suppl. 3) (1991) 26-33. The animals received carbon tetrachloride (CCl4) twice-weekly in a dose of 1 ml/kg orally for at least 6 weeks. The fibrosis of the liver was verified by means of the collagen content of the liver and liver-relevant serum parameters (bilirubin, ALAT, bile acids).
In the course of the fibrogenesis, the animals were kept under standard conditions as follows: day/night rhythm (light phase from 6.30 to 18.30), room temperature 22±2° C. and relative atmospheric humidity 60±10%. The animals received standardized rat feed (Altromin® 1321) and water ad libitum.
At the time of the diuresis test, the animals had reached weights of between 200 and 320 g. Food had already been withdrawn from the animals 16 h before the test and withheld during the entire test. The animals were additionally permitted free access to water up to the actual start of the test. For the duration of the diuresis test, the animals were kept in special diuresis cages. Controlled diuresis was induced with an oral dose of 20 ml of water per kg of body weight at time 0 h. The excretion of electrolytes and urine volumes were determined separately for each animal in the collection periods from […] and 6-24 h. Five days later, the test was carried out again on the same animals with administration of bradykinin antagonists. Animals received 0.3 mg/kg each of HOE 140 s.c. at time 0 and 6 h, dissolved in 5 ml of saline solution per kg of body weight.
Sodium and potassium were determined by flame photometry (Eppendorf flame photometer, Hamburg). Chloride was measured argentometrically by means of potentiometric end-point determination (Eppendorf chloride meter, Hamburg). The analytical results were used to calculate the urine excretion (ml/kg of body weight) and electrolyte excretion (mmol/kg of body weight).
The results are indicated as arithmetic means and standard deviation (SD). Statistical checking was carried out by the T test or, in the case of deviation from the normal distribution, by the nonparametric Mann-Whitney test.

SMILES: NC(N)=NCCC[C@@H](N)C(=O)N[C@@H](CCCN=C(N)N)C(=O)N1CCC[C@H]1C(=O)N1C[C@H](O)C[C@H]1C(=O)NCC(=O)N[C@@H](Cc1cccs1)C(=O)N[C@@H](CO)C(=O)N1Cc2ccccc2C[C@@H]1C(=O)N1[C@H](C(=O)N[C@@H](CCCN=C(N)N)C(=O)O)C[C@@H]2CCCC[C@@H]21 [HOE 140, H-D-Arg-Arg-Pro-Hyp-Gly-Thi-Ser-D-Tic-Oic-Arg-OH]
- Chloride excretion (collection period 1-5 h): 0.35 mmol/kg
- Potassium excretion (collection period 1-5 h): 0.51 mmol/kg
- Sodium excretion (collection period 1-5 h): 0.48 mmol/kg
- Urine volume (collection period 1-5 h): 26.59 mL/kg
- Chloride excretion (collection period 6-24 h): 3.27 mmol/kg
- Potassium excretion (collection period 6-24 h): 2.10 mmol/kg
- Sodium excretion (collection period 6-24 h): 4.10 mmol/kg
- Urine volume (collection period 6-24 h): 31.03 mL/kg
- Natriuresis / sodium excretion (result in words) (rats with carbon tetrachloride-induced hepatic fibrosis, versus control run in the same animals): marked, statistically significant natriuresis
